This note sets out measurements from patent publication US20110104664A1, “BIOMARKERS AND METHODS FOR DETERMINING SENSITIVITY TO MICORTUBULE-STABILIZING AGENTS” (Bristol-Myers Squibb Company, priority 2006, published 2011).

The test concerns invasive stage IIA-IIIB breast adenocarcinoma. The experiment in a line: CA163-080 phase II trial: pathologic complete response (pCR) in the breast after neoadjuvant ixabepilone, Sataloff classification. The format is in vivo, human. As to the method:
CA163-080 (080 trial) is an exploratory genomic phase II study that was conducted in breast cancer patients who received ixabepilone as a neoadjuvant treatment. The primary objective of this study was to identify predictive markers of response to ixabepilone through gene expression profiling of pre-treatment breast cancer biopsies. Patients with invasive stage IIA-IIIB breast adenocarcinoma (tumor size ≧3 cm diameter) received 40 mg/m^2 ixabepilone as a 3-hour infusion on Day for up to four 21-day cycles, followed by surgery within 3-4 weeks of completion of chemotherapy. A total of 164 patients were enrolled in this study. Biopsies for gene expression analysis were obtained both pre- and post-treatment. Upon isolation of biopsies from the patients, samples were either snap frozen in liquid nitrogen or placed into RNAlater solution overnight, followed by removal from the RNAlater solution. All samples were kept at −70° C. until use.
Pathological response was assessed using the Sataloff classification system (D. Sataloff et al., J. Am. Coll. Surg., 180(3):297-306 (1995)) and used as an end point for the pharmacogenomic analysis. The pathologic response was evaluated in the primary tumor site at the end of treatment and prior to surgery by assessing histologic changes compared with baseline as following: At the primary tumor site, cellular modifications were evaluated in both the infiltrating tumoral component and in the possible ductal component, to determine viable residual infiltrating component (% of total tumoral mass); residual ductal component (% of total tumoral mass); the mitotic index. Pathologic Complete Response (pCR) in the breast only was defined as T-A, Total or near total therapeutic effect in primary site. […] The response rate was defined as the number of responders divided by the number of treated patients.
Based on the definition of Pathology Complete Response (pCR), there are 23 responders and 111 non-responders in the 080 trial. Estrogen receptor 1 (ER) was previously found to be the best single-gene predictor with negative prediction value (NPV) 92% and positive prediction value (PPV) 37%, as described in PCT Publication No. ______ (PCT Application No. PCT/US2005/043261).
The data were based on the 080 trial. Patients' ER and PR status were determined by IHC assay.

Setting [1] is: 134 patients of the genomic dataset, 080 trial.
[2] abbreviates: ER− group of the genomic dataset.

Consider `C/C(=C\c1csc(C)n1)[C@@H]1C[C@@H]2O[C@]2(C)CCC[C@H](C)[C@H](O)[C@@H](C)C(=O)C(C)(C)[C@@H](O)CC(=O)N1` [ixabepilone], for which the “number of non-responders (no pCR)” value under setting [1] amounted to 111 and the “number of non-responders (no pCR)” value under setting [2] was found to be 37. Further, the “number of responders (pCR)” value under setting [1] came to 23 and the “number of responders (pCR)” value under setting [2] is reported as 18. Also, the pCR response rate reads like this: (ER+ PR+ patients (IHC), 080 trial) 4/62 = 6%; (ER+ PR− patients (IHC), 080 trial) 4/15 = 26.7%; (ER− PR+ patients (IHC), 080 trial) 0/9 = 0%; (ER− PR− patients (IHC), 40 mg/m^2 3-hour infusion, up to four 21-day cycles, 080 trial) 20/61 = 33%; (all ER+ patients (IHC), 080 trial) 8/77 = 10.4%; (all ER− patients (IHC), 080 trial) 20/70 = 29%. Besides, the pCR response rate reads like this: (all PR+ patients (IHC), 080 trial) 4/71 = 5.6%; (all PR− patients (IHC), 080 trial) 24/76 = 31.5%; (overall, all patients with ER and PR status, 080 trial) “Overall: 18%”.
